{"source": "BindingDB's records for doi:10.1021/ja057257n", "about": "(University of Pennsylvania, 2006)", "key": {"[1]": {"target": "Carbonic anhydrase 2 (Homo sapiens, UniProt P00918)", "assay": "Competitive Displacement Binding Assay", "settings": "pH 7; 25 °C", "method": "(§1) The dissociation constant of the hCA and inhibitor complex was determined by competitive displacement of a fixed concentration of dansylamide by increasing concentrations of the inhibitor using Perkin-Elmer lambda 50-B spectrofluorometer. […] The dissociation constant of the enzyme-inhibitor complex was determined by monitoring the decrease in the fluorescence of the enzyme-dansylamide complex as a function of the increasing concentration of the inhibitor."}, "[2]": {"target": "Carbonic anhydrase 1 (Homo sapiens, UniProt P00915)", "sequence (P00915 whole entry)": "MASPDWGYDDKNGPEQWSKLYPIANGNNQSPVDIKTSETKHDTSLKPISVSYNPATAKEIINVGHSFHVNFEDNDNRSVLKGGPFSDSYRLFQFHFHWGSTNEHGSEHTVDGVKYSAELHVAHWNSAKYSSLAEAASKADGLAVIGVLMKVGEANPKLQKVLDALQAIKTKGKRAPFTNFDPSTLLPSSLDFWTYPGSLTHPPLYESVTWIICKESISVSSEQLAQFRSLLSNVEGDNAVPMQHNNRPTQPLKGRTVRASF", "assay": "Competitive Displacement Binding Assay", "settings": "pH 7; 25 °C", "method": "as §1"}}, "data": [{"compound": "NS(=O)(=O)c1ccc(CCNC(=O)c2ccc(CN(CC(=O)O)CC(=O)O)cc2)cc1", "note": "[copper(2+) ion 2-[(carboxylatomethyl)[(4-{[2-(4-sulfamoylphenyl)ethyl]carbamoyl}phenyl)methyl]amino]acetate]", "values": [{"measurement": "Kd", "setting": "[1]", "value": 235, "unit": "nM"}, {"measurement": "Kd", "setting": "[2]", "value": 200, "unit": "nM"}]}]}
